Legend:
Assay type in all cases: in vivo
[1] = system: cats suffering from joint inflammation; test: Example 4: joint inflammation, thermal imaging (feline); settings: over the inflamed joint, 60 days BID
From the text: (§1) This example examines the ability of embodiments of the invention versus Cosequin® to treat joint inflammation.
The first patient group is twenty dogs suffering from joint inflammation. The second patient group is twenty cats suffering from joint inflammation. The third patient group is twenty horses suffering from joint inflammation. Each patient group is broken into five groups of four animals. The first groups receive Cosequin® as the sole active agent; the second groups receive a composition comprising HMW HA as the sole active agent; the third groups receive a composition comprising CBD as the sole active agent; the fourth groups receive a composition comprising HMW HA and CBD as the active agents; and the fifth groups receive a composition comprising HMW HA, CBD, Boswellia, and superoxide dismutase (“SOD”) as the active agents.
(§2) Each composition is administered for a period of sixty (60) days, BID. Efficacy is determined by a decrease in body temperature over the inflamed joint, as measured by thermal imaging (e.g., via Digatherm device). Thermal imaging is performed on days 0 (“Initial Score”), 15, 30, 45, and 60 (“Final Score”) of treatment.
The following feline scores are observed and the results depicted in FIG. 4b: […]

[2] = system: cats suffering behavior aberrations and/or anxiety; test: Example 5: behavior aberrations and anxiety, Fe-BARQ (feline); settings: Fe-BARQ day 0 vs 60, SID, 0 (no improvement) to 3 (marked improvement)
From the text: (§3) This example examines the ability of embodiments of the invention versus Clomicalm® to reduce behavior aberrations and anxiety.
The first patient group is twenty dogs suffering behavior aberrations and/or anxiety, as determined by the canine behavioral assessment and research questionnaire (“C-BARQ”). See, e.g., P. Wiener et al., Use of questionnaire-based data to assess dog personality, 16 JOURNAL OF VETERINARY BEHAVIOR 81-85 (2016). The second patient group is twenty cats suffering behavior aberrations and/or anxiety, as determined by the feline behavioral assessment and research questionnaire (“Fe-BARQ”).
Each group is broken into five groups of four animals. The first group receives Clomicalm® as the sole active agent; the second group receives a composition comprising HMW HA as the sole active agent; the third group receives a composition comprising CBD as the sole active agent; the fourth group receives a composition comprising HMW HA and CBD as the active agents; and the fifth group receives a composition comprising HMW HA, CBD, valerian root, and scutillaria as the active agents.
(§4) Each composition is administered for a period of sixty (60) days, once a day (“SID”). Owners complete the species-appropriate C-BARQ or Fe-BARQ on days 0 and 60 of treatment. The results from the overall questionnaire are averaged and characterized as no improvement (score of 0), mild improvement (score of 1), moderate improvement (score of 2), or marked improvement (score of 3).
The following feline scores are observed and the results depicted in FIG. 5b: […]

[3] = system: cats suffering from joint inflammation; test: Example 12: joint inflammation, thermal imaging (feline, CBD Complex); settings: over the inflamed joint, 60 days BID
From the text: as §1
(§5) The first patient group is twenty dogs suffering from joint inflammation. The second patient group is twenty cats suffering from joint inflammation. The third patient group is twenty horses suffering from joint inflammation. Each patient group is broken into five groups of four animals. The first groups receive Cosequin® as the sole active agent; the second groups receive a composition comprising HMW HA as the sole active agent; the third groups receive a composition comprising CBD as the sole active agent; the fourth groups receive a composition comprising HMW HA and CBD Complex as the active agents; and the fifth groups receive a composition comprising HMW HA, CBD Complex, Boswellia, and superoxide dismutase (“SOD”) as the active agents.
as §2
The following feline scores are observed and the results depicted in FIG. 12b: […]

[4] = system: dogs suffering behavior aberrations and/or anxiety; test: Example 13: behavior aberrations and anxiety, C-BARQ (canine, CBD Complex); settings: C-BARQ day 0 vs 60, SID, 0 (no improvement) to 3 (marked improvement)
From the text: as §3
(§6) The first patient group is twenty dogs suffering behavior aberrations and/or anxiety, as determined by the canine behavioral assessment and research questionnaire (“C-BARQ”). […] The second patient group is twenty cats suffering behavior aberrations and/or anxiety, as determined by the feline behavioral assessment and research questionnaire (“Fe-BARQ”).
(§7) Each group is broken into five groups of four animals. The first group receives Clomicalm® as the sole active agent; the second group receives a composition comprising HMW HA as the sole active agent; the third group receives a composition comprising CBD as the sole active agent; the fourth group receives a composition comprising HMW HA and CBD Complex as the active agents; and the fifth group receives a composition comprising HMW HA, CBD Complex, valerian root, and scutillaria as the active agents.
as §4

[5] = system: cats suffering behavior aberrations and/or anxiety; test: Example 13: behavior aberrations and anxiety, Fe-BARQ (feline, CBD Complex); settings: Fe-BARQ day 0 vs 60, SID, 0 (no improvement) to 3 (marked improvement)
From the text: as §3, §6, §7, §4

[6] = system: horses suffering from joint inflammation; test: Example 12: joint inflammation, thermal imaging (equine, CBD Complex); settings: over the inflamed joint, 60 days BID
From the text: as §1, §5, §2
The following equine scores are observed and the results depicted in FIG. 12c: […]

Compound	Reduction in Temperature (° F.) [1] [° F.]	Improvement Score [2]	Reduction in Temperature (° F.) [3] [° F.]	Improvement Score [4]	Improvement Score [5]	Reduction in Temperature (° F.) [6] [° F.]
C=C(C)[C@@H]1CCC(C)=C[C@H]1c1c(O)cc(CCCCC)cc1O [CBD Alone, 2-[(1R,6R)-3-methyl-6-prop-1-en-2-ylcyclohex-2-en-1-yl]-5-pentylbenzene-1,3-diol]	2.0	1.8	2.0	2	1.8	1.6
hyaluronic acid [HMW HA Alone]	2.3	1	2.3	1	1	2.1

Reference: patent US20220054532A1, “VETERINARY COMPOSITIONS AND METHODS OF USE THEREFOR” (priority 2019, published 2022)
